Literature values, collected in US20090270438A1, “Novel compositions and formulations” (priority 2006, published 2009).

Conditions: Pharmaceutical Codex

SMILES: COC12CCC3(CC1C(C)(O)C(C)(C)C)C1Cc4ccc(O)c5c4C3(CCN1CC1CC1)C2O5 (stereo not shown) [buprenorphine, Buprenorphine]
- pKa: 8.5
